Data taken from US20240269139A1, “COMPOUNDS FOR TARGETED PROTEIN DEGRADATION OF KINASES” (DANA-FARBER CANCER INSTITUTE, INC., priority 2020, published 2024).
Several values for one entry are separate records, joined by “and”; a condition that tells them apart may be missing. Identical values can stand only once. Like-named read-outs stand apart in the source and are kept apart here.

Legend:
Assay type in all cases: cell-based
[1] = molecular target: protein kinases (human kinome) (Homo sapiens, UniProt P53671); conditions: for logFC LIMK2: LIMK2 (P53671), down; for logFC of LIMK2: LIMK2 P53671
Chain of protein kinases (human kinome) (Homo sapiens, UniProt P53671) (P53671 whole entry): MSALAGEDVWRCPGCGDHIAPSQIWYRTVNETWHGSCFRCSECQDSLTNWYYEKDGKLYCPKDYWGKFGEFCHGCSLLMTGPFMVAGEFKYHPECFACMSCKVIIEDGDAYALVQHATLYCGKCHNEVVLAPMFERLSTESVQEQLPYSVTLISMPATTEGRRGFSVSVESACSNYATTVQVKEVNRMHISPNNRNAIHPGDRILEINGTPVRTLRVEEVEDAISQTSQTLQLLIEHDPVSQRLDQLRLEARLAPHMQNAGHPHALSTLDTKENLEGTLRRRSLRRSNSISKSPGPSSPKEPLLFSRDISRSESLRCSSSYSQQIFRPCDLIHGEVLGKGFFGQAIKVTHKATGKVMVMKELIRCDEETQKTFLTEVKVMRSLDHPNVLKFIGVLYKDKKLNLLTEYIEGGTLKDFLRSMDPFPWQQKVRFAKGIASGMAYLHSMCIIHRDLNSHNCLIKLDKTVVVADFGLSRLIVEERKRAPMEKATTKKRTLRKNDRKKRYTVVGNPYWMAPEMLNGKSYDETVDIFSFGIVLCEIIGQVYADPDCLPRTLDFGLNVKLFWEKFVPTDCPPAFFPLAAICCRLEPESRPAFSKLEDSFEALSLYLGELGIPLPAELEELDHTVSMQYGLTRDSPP

[2] = molecular target: protein kinases (human kinome) (Homo sapiens, UniProt P45984)
Chain of protein kinases (human kinome) (Homo sapiens, UniProt P45984) (P45984 whole entry): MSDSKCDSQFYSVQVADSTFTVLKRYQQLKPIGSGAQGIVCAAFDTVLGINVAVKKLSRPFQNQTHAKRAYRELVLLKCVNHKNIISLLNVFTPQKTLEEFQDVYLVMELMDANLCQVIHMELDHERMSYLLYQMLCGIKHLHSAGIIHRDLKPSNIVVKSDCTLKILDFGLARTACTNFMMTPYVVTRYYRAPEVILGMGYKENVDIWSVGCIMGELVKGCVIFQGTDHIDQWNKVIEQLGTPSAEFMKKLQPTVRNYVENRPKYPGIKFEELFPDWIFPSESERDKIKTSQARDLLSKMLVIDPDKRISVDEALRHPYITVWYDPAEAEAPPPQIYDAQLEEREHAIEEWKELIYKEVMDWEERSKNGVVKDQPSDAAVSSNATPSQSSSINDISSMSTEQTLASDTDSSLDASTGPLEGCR

[3] = molecular target: protein kinases (human kinome) (Homo sapiens, UniProt Q16584)
Chain of protein kinases (human kinome) (Homo sapiens, UniProt Q16584) (Q16584 whole entry): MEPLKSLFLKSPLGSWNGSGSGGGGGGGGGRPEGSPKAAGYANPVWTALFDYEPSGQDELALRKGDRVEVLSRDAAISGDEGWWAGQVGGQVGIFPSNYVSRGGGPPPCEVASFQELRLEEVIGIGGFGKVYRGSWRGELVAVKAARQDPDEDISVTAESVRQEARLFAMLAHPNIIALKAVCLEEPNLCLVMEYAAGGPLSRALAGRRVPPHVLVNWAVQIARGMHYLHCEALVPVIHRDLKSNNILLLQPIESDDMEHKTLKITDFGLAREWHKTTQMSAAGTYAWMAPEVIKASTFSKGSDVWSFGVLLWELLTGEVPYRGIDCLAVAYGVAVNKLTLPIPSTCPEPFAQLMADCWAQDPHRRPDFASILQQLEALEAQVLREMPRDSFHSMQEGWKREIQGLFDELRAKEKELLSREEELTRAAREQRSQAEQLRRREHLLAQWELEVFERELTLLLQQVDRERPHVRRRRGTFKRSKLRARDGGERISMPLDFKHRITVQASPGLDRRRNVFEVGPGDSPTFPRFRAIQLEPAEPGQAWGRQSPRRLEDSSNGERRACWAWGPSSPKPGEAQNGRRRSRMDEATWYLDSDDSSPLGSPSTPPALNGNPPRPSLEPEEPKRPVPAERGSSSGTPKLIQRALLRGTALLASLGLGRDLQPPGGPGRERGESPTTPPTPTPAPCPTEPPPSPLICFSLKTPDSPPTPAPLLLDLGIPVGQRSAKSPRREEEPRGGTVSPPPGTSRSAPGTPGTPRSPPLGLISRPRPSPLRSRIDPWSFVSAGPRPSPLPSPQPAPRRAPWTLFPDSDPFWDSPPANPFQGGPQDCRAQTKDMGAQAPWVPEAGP

[4] = molecular target: protein kinases (human kinome) (Homo sapiens, UniProt Q13233)
Chain of protein kinases (human kinome) (Homo sapiens, UniProt Q13233) (Q13233 whole entry): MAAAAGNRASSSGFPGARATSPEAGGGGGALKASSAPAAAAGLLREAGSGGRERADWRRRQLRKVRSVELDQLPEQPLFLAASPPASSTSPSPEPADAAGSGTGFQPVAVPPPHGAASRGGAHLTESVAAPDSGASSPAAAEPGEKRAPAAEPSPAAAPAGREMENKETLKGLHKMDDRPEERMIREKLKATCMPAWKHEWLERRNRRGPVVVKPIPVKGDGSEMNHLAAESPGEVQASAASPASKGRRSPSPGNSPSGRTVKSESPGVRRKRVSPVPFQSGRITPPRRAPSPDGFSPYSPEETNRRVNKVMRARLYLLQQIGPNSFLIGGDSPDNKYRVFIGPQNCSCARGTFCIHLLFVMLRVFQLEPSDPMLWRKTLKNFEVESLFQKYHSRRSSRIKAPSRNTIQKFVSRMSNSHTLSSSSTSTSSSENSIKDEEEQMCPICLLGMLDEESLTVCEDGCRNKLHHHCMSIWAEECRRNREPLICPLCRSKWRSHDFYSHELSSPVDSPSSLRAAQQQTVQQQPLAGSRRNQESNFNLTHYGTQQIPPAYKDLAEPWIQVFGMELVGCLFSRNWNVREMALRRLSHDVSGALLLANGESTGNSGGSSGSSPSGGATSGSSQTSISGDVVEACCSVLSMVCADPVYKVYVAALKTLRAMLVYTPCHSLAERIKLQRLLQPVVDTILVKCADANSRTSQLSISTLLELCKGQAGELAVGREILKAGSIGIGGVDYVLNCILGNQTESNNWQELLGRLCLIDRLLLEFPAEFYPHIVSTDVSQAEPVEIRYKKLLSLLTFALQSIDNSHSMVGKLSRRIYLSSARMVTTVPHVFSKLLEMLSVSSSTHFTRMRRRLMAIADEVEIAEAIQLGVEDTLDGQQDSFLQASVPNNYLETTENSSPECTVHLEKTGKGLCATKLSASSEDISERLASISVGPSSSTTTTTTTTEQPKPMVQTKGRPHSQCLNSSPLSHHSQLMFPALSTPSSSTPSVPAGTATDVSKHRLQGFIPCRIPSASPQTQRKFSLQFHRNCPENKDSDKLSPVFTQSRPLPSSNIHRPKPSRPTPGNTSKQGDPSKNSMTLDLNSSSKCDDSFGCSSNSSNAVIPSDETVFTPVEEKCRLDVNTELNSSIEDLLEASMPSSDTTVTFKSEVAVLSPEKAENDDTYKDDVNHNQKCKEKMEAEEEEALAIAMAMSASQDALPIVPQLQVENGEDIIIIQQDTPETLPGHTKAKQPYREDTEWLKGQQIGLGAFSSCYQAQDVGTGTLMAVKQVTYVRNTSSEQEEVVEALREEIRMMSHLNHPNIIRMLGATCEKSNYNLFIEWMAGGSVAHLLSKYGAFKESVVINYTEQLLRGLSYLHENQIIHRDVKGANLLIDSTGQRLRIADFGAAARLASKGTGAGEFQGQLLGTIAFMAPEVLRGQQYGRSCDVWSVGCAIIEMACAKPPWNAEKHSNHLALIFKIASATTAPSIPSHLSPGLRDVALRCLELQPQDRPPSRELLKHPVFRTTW

[5] = molecular target: protein kinases (human kinome) (Homo sapiens, UniProt Q9HBH9); conditions: for logFC MKNK2 (Q9HBH9): Experiment wp152; for logFC: MKNK2 (Q9HBH9-1)
[6] = molecular target: protein kinases (human kinome) (Homo sapiens, UniProt P24941)
[7] = molecular target: protein kinases (human kinome) (Homo sapiens, UniProt Q00535)
Chain of protein kinases (human kinome) (Homo sapiens, UniProt Q00535) (Q00535 whole entry): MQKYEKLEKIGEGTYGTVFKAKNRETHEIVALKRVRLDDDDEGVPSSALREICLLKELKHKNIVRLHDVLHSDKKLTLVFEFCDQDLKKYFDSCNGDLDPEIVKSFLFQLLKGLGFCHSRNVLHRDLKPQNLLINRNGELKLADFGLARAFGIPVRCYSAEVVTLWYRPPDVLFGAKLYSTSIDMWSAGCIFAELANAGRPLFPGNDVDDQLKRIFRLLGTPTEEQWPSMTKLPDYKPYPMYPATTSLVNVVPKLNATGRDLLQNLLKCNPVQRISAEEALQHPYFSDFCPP

[8] = molecular target: protein kinases (human kinome) (Homo sapiens, UniProt P50613); conditions: for logFC: CDK7 (P50613) protein abundance, degrader vs DMSO, down; for logFC CDK7: CDK7 P50613
Chain of protein kinases (human kinome) (Homo sapiens, UniProt P50613) (P50613 whole entry): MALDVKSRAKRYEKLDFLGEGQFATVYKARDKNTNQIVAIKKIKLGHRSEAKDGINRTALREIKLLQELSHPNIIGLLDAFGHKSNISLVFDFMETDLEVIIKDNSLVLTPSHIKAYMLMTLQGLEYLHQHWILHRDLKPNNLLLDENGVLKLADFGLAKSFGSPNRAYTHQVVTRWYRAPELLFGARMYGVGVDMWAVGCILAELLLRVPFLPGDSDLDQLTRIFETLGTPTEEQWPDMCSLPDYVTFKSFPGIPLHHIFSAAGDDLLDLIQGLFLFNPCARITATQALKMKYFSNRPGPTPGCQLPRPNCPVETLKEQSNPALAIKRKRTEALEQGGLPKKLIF

[9] = molecular target: protein kinases (human kinome) (Homo sapiens, UniProt Q8TDR2)
Chain of protein kinases (human kinome) (Homo sapiens, UniProt Q8TDR2) (Q8TDR2 whole entry): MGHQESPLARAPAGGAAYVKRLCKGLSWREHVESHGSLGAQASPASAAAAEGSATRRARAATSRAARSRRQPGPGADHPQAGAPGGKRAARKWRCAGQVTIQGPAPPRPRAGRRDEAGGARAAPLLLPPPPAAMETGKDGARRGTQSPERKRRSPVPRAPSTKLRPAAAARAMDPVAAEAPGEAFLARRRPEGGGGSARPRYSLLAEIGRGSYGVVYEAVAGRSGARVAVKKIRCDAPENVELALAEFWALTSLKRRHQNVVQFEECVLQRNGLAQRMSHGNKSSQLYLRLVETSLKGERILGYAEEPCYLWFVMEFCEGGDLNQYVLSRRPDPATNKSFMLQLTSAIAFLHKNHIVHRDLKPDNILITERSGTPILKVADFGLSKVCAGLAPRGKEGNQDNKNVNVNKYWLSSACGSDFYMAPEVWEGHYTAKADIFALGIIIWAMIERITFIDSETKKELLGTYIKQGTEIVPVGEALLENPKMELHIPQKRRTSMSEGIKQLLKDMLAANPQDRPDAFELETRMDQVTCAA

[10] = molecular target: protein kinases (human kinome) (Homo sapiens, UniProt Q07912); conditions: for logFC TNK2 (Q07912-1): direction down; for logFC TNK2: TNK2 (Q07912-1)
[11] = MAPK9 P45984-1, experiment wp045
[12] = MAPK9 P45984-1, experiment wp103
[13] = MAPK9 P45984-1, experiment wp105
[14] = MAPK9 P45984-1, experiment wp107
[15] = MAPK9 P45984-1, experiment wp114
[16] = MAPK9 P45984-1, experiment wp117
[17] = MAPK9 P45984-1, experiment wp160, 2 hr
[18] = MAPK9 P45984-1, experiment wp160, 4 hr
[19] = MAPK9 P45984-1, experiment wp160, 8 hr
[20] = MAPK9 P45984-1, experiment wp172
[21] = experiment wp146, direction of change down
[22] = MAPK9 P45984-1, experiment wp146
[23] = experiment wp016, direction of change down
[24] = experiment wp131, direction of change down
[25] = experiment wp137, direction of change down

Cc1ccc(NC(=O)c2cccc(C(F)(F)F)c2)cc1N1Cc2cnc(Nc3ccc(N4CCN(Cc5cn(CCCCCOc6cccc7c6C(=O)N(C6CCC(=O)NC6=O)C7=O)nn5)CC4)nc3)nc2N(C)C1=O (stereo not shown) [DB0646, N-(3-(7-((6-(4-((1-(5-((2-(2,6-Dioxopiperidin-3-yl)-1,3-dioxoisoindolin-4-yl)oxy)pentyl)-1H-1,2,3-triazol-4-yl)methyl)piperazin-1-v)pyridin-3-yl)amino)-1-methyl-2-oxo-1,4-dihydropyrimido[4,5-d]pyrimidin-3(2H)-yl)-4-methylphenyl)-3-(trifluoromethyl)benzamide]
logFC LIMK2 ([1]; experiment wp045): −1.648 | logFC LIMK2 ([1]; experiment wp103): −1.569 | logFC LIMK2 ([1]; experiment wp107): −1.738 | logFC LIMK2 ([1]; experiment wp117): −1.565 | logFC LIMK2 ([1]; experiment wp152): −1.565 | logFC LIMK2 ([1]; experiment wp172): −1.095 | logFC of LIMK2 ([1]; experiment wp045): −1.648 | logFC of LIMK2 ([1]; experiment wp103): −1.569 | logFC of LIMK2 ([1]; experiment wp107): −1.738 | logFC of LIMK2 ([1]; experiment wp117): −1.565 | logFC of LIMK2 ([1]; experiment wp152): −1.565 | logFC of LIMK2 ([1]; experiment wp172): −1.095 | logFC MAPK9 (P45984) ([2]; Experiment wp152, direction of change down): −2.161 | logFC [2, 11]: −1.344 | logFC MAPK9 [2, 11]: −1.344 | logFC [2, 12]: −1.045 | logFC MAPK9 [2, 12]: −1.045 | logFC [2, 13]: −0.929 | logFC MAPK9 [2, 13]: −0.929 | logFC [2, 14]: −1.414 | logFC MAPK9 [2, 14]: −1.414 | logFC [2, 15]: −0.5078 | logFC MAPK9 [2, 15]: −0.5078 | logFC [2, 16]: −1.488 | logFC MAPK9 [2, 16]: −1.488 | logFC [2, 17]: −0.7555 | logFC MAPK9 [2, 17]: −0.7555 | logFC [2, 18]: −1.498 | logFC MAPK9 [2, 18]: −1.498 | logFC [2, 19]: −2.137 | logFC MAPK9 [2, 19]: −2.137 | logFC [2, 20]: −0.8343 | logFC MAPK9 [2, 20]: −0.8343 | logFC MAPK9 ([2]; MAPK9 P45984, experiment wp152): −2.161 | logFC MAP3K11 (Q16584) ([3]; experiment wp107): −0.5077 | logFC MAP3K11 (Q16584) ([3]; experiment wp117): −0.4308 | logFC MAP3K1 ([4]; Accession Q13233, experiment wp107, direction down): −0.3767 | logFC MAP3K1 ([4]; Accession Q13233, experiment wp152, direction down): −0.6139 | logFC MAP3K1 ([4]; Accession Q13233, experiment wp160, 8 hr, direction down): −0.7241 | logFC MAP3K1 ([4]; MAP3K1 (Q13233), experiment wp107): −0.3767 | logFC MAP3K1 ([4]; MAP3K1 (Q13233), experiment wp152): −0.6139 | logFC MAP3K1 ([4]; MAP3K1 (Q13233), experiment wp160, 8 hr): −0.7241 | logFC MKNK2 (Q9HBH9-1) ([5]; Experiment wp045, direction down): −0.4463 | logFC MKNK2 (Q9HBH9-1) ([5]; Experiment wp117, direction down): −0.3794 | logFC MKNK2 (Q9HBH9) ([5]; direction down): −0.4447 | logFC MKNK2 (Q9HBH9) ([5]; direction of change down): −0.4447 | logFC MKNK2 (Q9HBH9-1) ([5]; Experiment wp160, 4 hr, direction down): −0.5226 | logFC MKNK2 (Q9HBH9-1) ([5]; Experiment wp160, 8 hr, direction down): −0.6422 | logFC ([5]; experiment wp045): −0.4463 | logFC ([5]; experiment wp117): −0.3794 | logFC ([5]; experiment wp160, 4 hr): −0.5226 | logFC ([5]; experiment wp160, 8 hr): −0.6422

NC(=O)c1c(F)cccc1Nc1nc(Nc2ccc(S(=O)(=O)NCCOCCOCCOCCOCCNc3cccc4c3C(=O)N(C3CCC(=O)NC3=O)C4=O)cc2)ncc1Br (stereo not shown) [TMX.02.138]
logFC CDK2 (P24941-1) ([6]; experiment wp146): −2.27 | logFC CDK2 (P24941-1) [6, 21]: −2.27 | logFC [2, 22]: −1.518 | logFC MAPK9 [2, 22]: −1.518 | logFC CDK5 (Q00535) ([7]; experiment wp146): −3.29 | logFC CDK5 (Q00535) [7, 21]: −3.29 | logFC MAP3K11 (Q16584) ([3]; experiment wp146): −0.9241 | logFC [8]: −0.5239 | logFC CDK7 ([8]; experiment wp146): −0.5239

CC(C)S(=O)(=O)c1ccccc1Nc1nc(Nc2ccc(N3CCN(CCOCCOCCNC(=O)CNc4cccc5c4C(=O)N(C4CCC(=O)NC4=O)C5=O)CC3)cc2)ncc1Cl (stereo not shown) [TL12.186]
logFC CDK2 (P24941-1) ([6]; experiment wp016): −0.5971 | logFC CDK2 (P24941-1) [6, 23]: −0.5971 | logFC CDK2 (P24941-1) ([6]; experiment wp131): −0.98 | logFC CDK2 (P24941-1) [6, 24]: −0.98 | logFC CDK2 (P24941-1) ([6]; experiment wp137): −0.9162 | logFC CDK2 (P24941-1) [6, 25]: −0.9162 | logFC STK35 ([9]; Accession Q8TDR2, experiment wp131, direction down): −0.4135 | logFC STK35 ([9]; Accession Q8TDR2, experiment wp137, direction down): −0.4079 | logFC STK35 ([9]; STK35 (Q8TDR2), experiment wp131): −0.4135 | logFC STK35 ([9]; STK35 (Q8TDR2), experiment wp137): −0.4079 | logFC LIMK2 ([1]; experiment wp016): −0.7395 | logFC LIMK2 ([1]; experiment wp131): −1.323 | logFC LIMK2 ([1]; experiment wp137): −1.179 | logFC of LIMK2 ([1]; experiment wp016): −0.7395 | logFC of LIMK2 ([1]; experiment wp131): −1.323 | logFC of LIMK2 ([1]; experiment wp137): −1.179 | logFC of CDK5 ([7]; Accession Q00535, experiment wp016): −0.9261 | logFC CDK5 (Q00535) [7, 23]: −0.9261 | logFC CDK5 (Q00535) ([7]; experiment wp131): −1.3 | logFC CDK5 (Q00535) [7, 24]: −1.3 | logFC CDK5 (Q00535) ([7]; experiment wp137): −1.234 | logFC CDK5 (Q00535) [7, 25]: −1.234 | logFC MAP3K11 (Q16584) ([3]; experiment wp131): −1.795 | logFC MAP3K11 (Q16584) ([3]; experiment wp137): −1.493 | logFC [8]: −0.7603 and −0.6447 and −0.7438 | logFC CDK7 ([8]; experiment wp016): −0.7603 | logFC CDK7 ([8]; experiment wp131): −0.6447 | logFC CDK7 ([8]; experiment wp137): −0.7438 | logFC TNK2 (Q07912-1) ([10]; Experiment wp131): −2.251 | logFC TNK2 (Q07912-1) ([10]; Experiment wp137): −1.575 | logFC TNK2 ([10]; experiment wp131): −2.251 | logFC TNK2 ([10]; experiment wp137): −1.575

Cc1cc(Nc2ncc(Br)c(Nc3cccc(F)c3C(N)=O)n2)ccc1S(=O)(=O)NCCOCCOCCOCCOCCNc1cccc2c1C(=O)N(C1CCC(=O)NC1=O)C2=O (stereo not shown) [TMX.02.174]
logFC CDK2 (P24941-1) ([6]; experiment wp146): −2.295 | logFC CDK2 (P24941-1) [6, 21]: −2.295 | logFC STK35 ([9]; Accession Q8TDR2, experiment wp146, direction down): −0.5631 | logFC STK35 ([9]; STK35 (Q8TDR2), experiment wp146): −0.5631 | logFC [2, 22]: −1.031 | logFC MAPK9 [2, 22]: −1.031 | logFC CDK5 (Q00535) ([7]; experiment wp146): −3.161 | logFC CDK5 (Q00535) [7, 21]: −3.161 | logFC MAP3K11 (Q16584) ([3]; experiment wp146): −1.874 | logFC [8]: −0.584 | logFC CDK7 ([8]; experiment wp146): −0.584

CC(C)S(=O)(=O)c1ccccc1Nc1nc(Nc2ccc(N3CCN(CCOCCOCCC(=O)NCCNc4cccc5c4CN(C4CCC(=O)NC4=O)C5=O)CC3)cc2)ncc1Cl (stereo not shown) [TL13.97]
logFC CDK2 (P24941-1) ([6]; experiment wp137): −0.7834 | logFC CDK2 (P24941-1) [6, 25]: −0.7834 | logFC LIMK2 ([1]; experiment wp137): −0.9054 | logFC of LIMK2 ([1]; experiment wp137): −0.9054 | logFC CDK5 (Q00535) ([7]; experiment wp137): −1.114 | logFC CDK5 (Q00535) [7, 25]: −1.114 | logFC MAP3K11 (Q16584) ([3]; experiment wp137): −0.7626 | logFC [8]: −1.05 | logFC CDK7 ([8]; experiment wp137): −1.05 | logFC TNK2 (Q07912-1) ([10]; Experiment wp137): −1.971 | logFC TNK2 ([10]; experiment wp137): −1.971
